Experiment [1] has as its system C3H10T1/2 cells. The experiment is described as follows: Glucose uptake of adipocytes (radioactive 2-deoxyglucose, basal, absence of insulin). The class given is cell-based. The note with it: 48-h treatment; for Basal glucose uptake: absence of insulin, ± SEM, DMSO control = 100%; for Basal glucose uptake (result in words): different concentrations. As to the method:
C3H10T1/2 cells (ATCC CCL-226) were grown for 5 days to confluence in DMEM supplemented with 10% FBS medium and induced with a mixture of insulin, dexamethasone and 3-isobutyl-1-methylxanthine to differentiate into adipocytes. Nine days after the beginning of induction, cells were treated for 48-h with the compound of the formula I-1 at different concentrations as shown in Table 1. Glucose uptake was determined using radioactive 2-deoxyglucose (10 μM 2-DG in HBS+0.5 μCi/ml of 3-[H]-2-DG), measuring glucose uptake in the absence of insulin. Basal glucose uptake was increased by 48-h treatment with the compound of the formula I-1 in a dose-dependent manner (Table 1). Growing, induction and treatment of C3H10T1/2 cells were exactly as described in Example 1, with the exception that the compound of the formula I-3 at different concentrations was used instead of the compound of the formula I-1. […] Control: C3H10T1/2 cells treated for 48 h with DMSO at the same concentration as compound-treated cells and set at 100%

The test system of experiment [2] is C3H10T1/2 cells. Briefly: Differentiation of adipocytes (oil Red O staining, absorbance at 540 nm). It is filed as cell-based. As to conditions: for Differentiation of the cells into adipocytes (result in words): co-treatment with insulin, compared with insulin alone; for Mean OD ± SEM (oil Red O, 540 nm): 10-day treatment. As for the experimental part: C3H10T1/2 cells were grown to confluence as described in Example 1, then treated for 10 days with insulin alone (negative control) or with a mixture of insulin and the compound of the formula I-1 at different concentrations (see Table 2), with re-feeding with fresh medium and compounds every 48-h. After 10-days of treatment, the cells were stained with oil Red O as follows: cells were washed 2× in PBS and fixed in 10% formalin at room temperature for 1 h. After removal of formalin, 200 μl of oil Red O staining solution (3:2 mixture of 0.5% w/v oil Red O stock solution and water) was applied to each well. The cells were incubated for 20 min at room temperature, washed twice in 2×PBS and incubated for 10 min with 300 μl of isopropanol/well for oil Red O extraction. Quantification of oil Red O was determined by measuring absorbance at 540 nm (mean OD). […] C3H10T1/2 cells were grown and treated as described in Example 4 with the exception that the compound of the formula I-2 was used instead of the compound of the formula I-1. The measurement of adipocyte differentiation using the oil Red O assay was performed as described in Example 4. […] C3H10T1/2 cells were grown and treated as described in Example 4 with the exception that the compound of the formula I-3 was used instead of the compound of the formula I-1. The measurement of adipocyte differentiation using the oil Red O assay was performed as described in Example 4.

For another experiment, the system named is C57BLKS/J db/db mice. Briefly: Glucose tolerance, 14-day study in db/db mice (blood glucose, OGTT, FFA). It is filed as in vivo. As to the method: The efficacy of the compound of the formula I-1 on glucose tolerance was tested in a 14-day study in C57BLKS/J db/db mice (n=10/group), a model of late type 2 diabetes mellitus with severe hyperglycemia.
Male db/db mice were obtained from Jackson Laboratory (Bar Harbor, Me., USA). Adult mice aged 8 weeks were used in the experiment. Mice were housed individually in plastic cages with bedding and allowed free access to standard rodent food and tap water. The animal rooms were controlled for temperature (24° C.), humidity (55%), and light (12-h light-dark cycle). The animals were randomized in two groups and the compound of the formula I-1 was administered orally to one of the groups for 14 days at a dose of 200 mg/kg BW/day. After 14 days of treatment the concentration of glucose was determined in blood from fed animals, i.e., animals which were not restricted from food. After a period of 10 days of treatment an oral glucose tolerance test (OGTT) was performed. For the OGTT mice were fasted overnight and then a 1-g glucose/kg BW solution was orally administered. Blood samples were taken before and 15, 30, 45, 60, 90, 120, 150, 180 min after the glucose challenge for determination of blood glucose levels and then the area under the curve (AUC) was determined. Blood glucose was measured by a glucose analyzer (Glucotrend Premium, Roche Diagnostics, Rotkreuz, Switzerland). The glucose and the free fatty acid (FFA) levels of fed animals (see above) were lowered after 14 days of treatment with the compound of the formula I-1. After 10 days of treatment with the compound of the formula I-1 the glucose levels of fasted animals, i.e., animals with an overnight fasting (see above) were decreased as compared to the untreated control group.

Setting [3] is: compound 1 × 10^−5 M + insulin 1 × 10^−7 M.
[4] abbreviates: after 14 days of treatment, 200 mg/kg BW/day orally.

This is an account of results in US20090239944A1, “Novel Use of Organic Compounds” (priority 2005, published 2009).

For the molecule `CC1(COc2ccc(CC3SC(=O)NC3=O)cc2)CCCCC1` (centres unmarked) [Ciglitazone, ciglitazone, reference compound], the Basal glucose uptake in the experiment on C3H10T1/2 cells [1] (5 × 10^−5 M) is 496.178 ± 61.86 % of control.

As to `COc1ccc(C(=O)/C=C/c2c(CCN(C)C(C)=O)cc3c(c2OC)OCO3)cc1` [I-1], the Basal glucose uptake with C3H10T1/2 cells [1] (1 × 10^−5 M) is given as 94.58 ± 0.95 % of control; with C3H10T1/2 cells [1] (1 × 10^−6 M) it was 97.6 ± 22.9 % of control; in the experiment with C3H10T1/2 cells [1] (2.4 × 10^−5 M), 128.6 ± 0.89 % of control; in the experiment on C3H10T1/2 cells [1] (5 × 10^−4 M), 194.058 ± 0.05 % of control. In addition, the “Basal glucose uptake (result in words)” value in the experiment with C3H10T1/2 cells [1] is listed as “increased”. For the same molecule, the “Differentiation of the cells into adipocytes (result in words)” value (“Differentiation” below) in the experiment with C3H10T1/2 cells [2] is recorded as “higher differentiation of the cells into adipocytes than insulin alone”. The “Mean OD ± SEM (oil Red O, 540 nm)” value in the experiment with C3H10T1/2 cells [2] (setting [3]) was found to be 0.69 ± 0.019. In addition, the “glucose AUC of an OGTT (result in words)” value in the experiment on C57BLKS/J db/db mice (1 g glucose/kg body weight, day 10) is “significantly reduced”. Moreover, the “Glucose AUC” value with C57BLKS/J db/db mice (OGTT (1 g glucose/kg BW) on day 10, 0-180 min, 200 mg/kg BW/day orally, control 69673) turned out to be 54295. The “glucose levels of fasted animals (result in words)” value in the experiment on C57BLKS/J db/db mice (after 10 days of treatment, compared to the untreated control group) is recorded as “decreased”. For the same molecule, the “free fatty acid (FFA) levels of fed animals (result in words)” value in the experiment with C57BLKS/J db/db mice (setting [4]) is “lowered”. Also, the “glucose levels of fed animals (result in words)” value with C57BLKS/J db/db mice (setting [4]) is given as “lowered”. Further, in the experiment with C57BLKS/J db/db mice (compared with the control group, 15-180 min after glucose challenge), the “blood glucose levels during the OGTT (result in words)” value is “lower at all time points”. In addition, the “Blood Glucose Fasted” value in the experiment with C57BLKS/J db/db mice (db/db mice, 200 mg/kg BW/day orally, after 10 days, overnight fasting, control 175) was 135 mg/dL. The FFA in the experiment on C57BLKS/J db/db mice (db/db mice, 200 mg/kg BW/day orally, after 14 days, fed animals, control 15.95) was 12.38 mg/dL. The “Blood Glucose Fed” value in the experiment with C57BLKS/J db/db mice (db/db mice, 200 mg/kg BW/day orally, after 14 days, fed animals, control 859) is 771 mg/dL.

As for `COc1ccc(C(=O)/C=C/c2cccc(OC(=O)/C=C/c3ccccc3)c2)cc1` [I-2], the “Differentiation” value in the experiment with C3H10T1/2 cells [2] is “higher differentiation of the cells into adipocytes than insulin alone”. The “Mean OD ± SEM (oil Red O, 540 nm)” value with C3H10T1/2 cells [2] (setting [3]) is reported as 0.45 ± 0.037.

For the molecule `COc1ccc(/C=C/C(=O)c2ccc(OC(=O)c3ccccc3)cc2)cc1OC` [I-3], the Basal glucose uptake in the experiment on C3H10T1/2 cells [1] (1 × 10^−5 M) is on record as 133.28 ± 23.4 % of control; in the experiment on C3H10T1/2 cells [1] (1 × 10^−6 M), 105.37 ± 2.21 % of control; in the experiment with C3H10T1/2 cells [1] (2 × 10^−4 M), 142.84 ± 18.05 % of control; in the experiment on C3H10T1/2 cells [1] (5 × 10^−5 M), 116.17 ± 15.96 % of control. Moreover, the “Basal glucose uptake (result in words)” value with C3H10T1/2 cells [1] was “increase”. For the same molecule, the “Differentiation” value in the experiment with C3H10T1/2 cells [2] is given as “higher differentiation of the cells into adipocytes than insulin alone”. In addition, the “Mean OD ± SEM (oil Red O, 540 nm)” value in the experiment with C3H10T1/2 cells [2] (setting [3]) is recorded as 0.53 ± 0.025; with C3H10T1/2 cells [2] (compound 2 × 10^−4 M + insulin 1 × 10^−7 M) it was 0.34 ± 0.087; in the experiment with C3H10T1/2 cells [2] (compound 5 × 10^−5 M + insulin 1 × 10^−7 M), 0.53 ± 0.017.

Take “Insulin: insulin alone, negative control of the adipocyte differentiation test”: the “Mean OD ± SEM (oil Red O, 540 nm)” value in the experiment with C3H10T1/2 cells [2] (insulin 1 × 10^−7 M alone (negative control)) is given as 0.28 ± 0.03.
